Results as given in patent publication US10604476B2, “Fluorinated amide derivatives and their uses as therapeutic agents” (Trillium Therapeutics Inc., priority 2015, dated 2020).

Test system: lithium pilocarpine-induced status epilepticus
Experiment: Pilocarpine-induced status epilepticus rat model
Format: in vivo
Experimental: While most seizures are often short duration events that resolve spontaneously, status epilepticus (SE) events are characterized by continuous epileptic seizures or a series of seizures lasting longer than 30 minutes. Typically, treatment of SE requires emergency room intervention with either diazepam or lorazepam, immediately followed by phenytoin or phenobarbital. However, up to 15% of SE episodes can be refractory to these conventional therapies, thus identifying novel treatments that can be applied in the drug-refractory period, i.e. benzodiazepine-resistant SE, is of critical value to the clinical management of SE. The lithium-pilocarpine model is used to study the effects of a test compound on benzodiazepine-resistant SE. Sprague Dawley rats (n=8 per group; 100-150 g) are injected with lithium chloride (LiCl) solution (127 mg/kg). Animals are then used for the lithium pilocarpine-induced SE test 20-24 hours following LiCl injection. On the day of the test, animals are weighed and then injected with pilocarpine (50 mg/kg; i.p.) before being placed in an observation cage. In the initial convulsive-SE behavioral observation studies, adult rats receive a dose of the investigational compound, which was found in rat MES quantification to produce MMI. […] The ED50 and ED97 in this behavioral assay (30 minute time point) are determined for promising investigational compounds.

## C[C@@H](Oc1cc(Cl)cc(C(F)(F)F)c1)C(N)=O [I(D), (2R)-2-[3-chloro-5-(trifluoromethyl)-phenoxy]propanamide]
130 mg/kg
  effect in chemically induced SE, administered 30 minutes after the appearance of seizures: effective
Time zero, 65 mg/kg
  effect in chemically induced SE, administered at the time of the chemical insult: effective
